Laboratory results taken from patent US20100285959A1, “HERBICIDAL MIXTURES” (priority 2006, published 2010).

Legend:
alexandergrass (BRAPL) = assay: Test 11 field trial, preemergence; type: in vivo, Brachiaria plantaginea; set-up: scale not given here
Source text: (§1) Corn seeds (hybrid ‘Pioneer 3041’) were planted in mid spring season, 5 cm deep in a clay soil having 2.6% organic matter and a pH of 5.6. Plots were 8 m long by 1.5 m wide with rows spaced 80 cm apart. Seeds were spaced 15 cm apart within the rows. The field was managed using conventional tillage practices. […] Treatments consisted of Compound 2 or
(§2) Goosegrass was not evaluated 16 or 91 days after application.

giant foxtail (SETFA) [1] = assay: Test 5 field trial, postemergence; type: in vivo, Setaria faberi; settings: atrazine 1120, glufosinate 470 or glyphosate 1120 g a.i./ha alone
Source text: (§3) Corn seeds (hybrid ‘Pioneer 38H69’) were planted in mid spring season, 5.1 cm deep in a silty clay loam soil having 3% organic matter and a pH of 6.5. Plots were 9.1 m long by 3.0 m wide with rows spaced 76 cm apart. The field was managed using conventional tillage practices. […] All treatments included a surfactant except glufosinate treatments, both alone and in combination. […] Results are summarized in Table 5 and are the means of the three replicates.

[2] = tested on: Pennsylvania smartweed (POLPY); assay: Test 1 field trial, preemergence; type: in vivo, Polygonum pensylvanicum; settings: g a.i./ha: Atrazine 1680, S-Metolachlor 1870
Source text: (§4) Corn seeds (hybrid ‘Pioneer 34N43’) were planted in mid spring season, 3.8 cm deep in a silt loam soil having 4.6% organic matter and a pH of 6. Plots were 10.7 m long by 1.5 m wide with rows spaced 76 cm apart. Seeds were spaced 18 cm apart within the rows. The field was managed using conventional tillage practices. […] Results are summarized in Table 1 and are the means of the three replicates. […] Colby's Equation (Colby, S. R. “Calculating Synergistic and Antagonistic Responses of Herbicide Combinations,” Weeds, 15(1), pp 20-22 (1967)) calculates the expected additive effect of herbicidal mixtures, and for two active ingredients is of the form:
(§5) Pa+b=Pa+Pb−(PaPb/100) • wherein Pa+b is the percentage effect of the mixture expected from additive contribution of the individual components, • Pa is the observed percentage effect of the first active ingredient at the same use rate as in the mixture, and • Pb is the observed percentage effect of the second active ingredient at the same use rate as in the mixture.

[3] = tested on: Ipomoea grandiflora (IPOGF); assay: Test 11 field trial, preemergence; type: in vivo
Source text: as §1, §2

yellow foxtail (SETLU) [4] = assay: Test 1 field trial, preemergence; type: in vivo, Setaria glauca; settings: 56 DAA; g a.i./ha: Atrazine 1680; S-Metolachlor 1870
Source text: as §4, §5

common blackjack (BIDPI) = assay: Test 11 field trial, preemergence; type: in vivo, Bidens pilosa; set-up: scale not given here
Source text: as §1, §2

[5] = tested on: ivyleaf morningglory (IPOHE); assay: Test 10 field trial, preemergence; type: in vivo, Ipomoea hederacea; settings: 28 DAA; g a.i./ha: Cpd 2 100, Atrazine 1680, S-Metolachlor 1870
Source text: (§6) Corn seeds (hybrid ‘Pioneer 33P65 RR’) were planted in mid spring season, 2.5 cm deep in a silt loam soil. Plots were 9.1 m long by 3.0 m wide with rows spaced 76 cm apart. The field was managed using conventional tillage practices. […] Results are the means of the three replicates.

velvetleaf (ABUTH) [6] = assay: Test 6 field trial, postemergence; type: in vivo, Abutilon theophrasti; settings: 1120 g a.i./ha
Source text: (§7) Corn seeds (hybrid ‘Pioneer 35Y62’) were planted in mid spring season, 3.8 cm deep in a silt loam soil having 4% organic matter and a pH of 5.8. Plots were 10.7 m long by 1.5 m wide with rows spaced 76 cm apart. Seeds were spaced 18 cm apart within the rows. The field was managed using conventional tillage practices. […] All treatments included a surfactant except glufosinate treatments, both alone and in combination. […] Results are summarized in Table 6 and are the means of the three replicates.

shepherd's purse (CAPBP) = assay: Test 5 field trial, postemergence; type: in vivo, Capsella bursa-pastoris; settings: atrazine 1120, glufosinate 470 or glyphosate 1120 g a.i./ha alone
Source text: as §3

southern sandbur (CCHEC) = assay: Test 11 field trial, preemergence; type: in vivo, Cenchrus echinatus; set-up: scale not given here
Source text: as §1, §2

giant foxtail (SETFA) [7] = assay: Test 10 field trial, preemergence; type: in vivo, Setaria faberi; settings: 28 DAA; g a.i./ha: Cpd 2 100, Atrazine 1680, S-Metolachlor 1870
Source text: as §6

velvetleaf (ABUTH) [8] = assay: Test 8 field trial, preemergence; type: in vivo, Abutilon theophrasti; settings: g a.i./ha: Cpd 2 100, Atrazine 1680, S-Metolachlor 1870
Source text: Corn seeds (hybrid ‘Pioneer 31G96’) were planted in mid spring season, 3.8 cm deep in a clay loam soil having 2% organic matter and a pH of 6.6. Plots were 6.1 m long by 3.0 m wide with rows spaced 76 cm apart. Seeds were spaced 15 cm apart within the rows. The field was managed using conventional tillage practices. […] A few of the weed species could not be evaluated at every timing. […] Results are the means of the three replicates.

yellow foxtail (SETLU) [9] = assay: Test 6 field trial, postemergence; type: in vivo, Setaria glauca; settings: 1120 g a.i./ha
Source text: as §7

[10] = 16 DAA, atrazine 1500 or metolachlor 2500 g a.i./ha alone
[11] = 30 DAA, atrazine 1500 or metolachlor 2500 g a.i./ha alone
[12] = 44 DAA, atrazine 1500 or metolachlor 2500 g a.i./ha alone
[13] = 62 DAA, atrazine 1500 or metolachlor 2500 g a.i./ha alone
[14] = 91 DAA, atrazine 1500 or metolachlor 2500 g a.i./ha alone
[15] = 16 DAA, Cpd 2/Cpd 1 at 62 g a.i./ha, alone or + atrazine 1500 or metolachlor 2500
[16] = 16 DAA, Cpd 2/Cpd 1 at 125 g a.i./ha, alone or + atrazine 1500 or metolachlor 2500
[17] = 30 DAA, Cpd 2/Cpd 1 at 62 g a.i./ha, alone or + atrazine 1500 or metolachlor 2500
[18] = 30 DAA, Cpd 2/Cpd 1 at 125 g a.i./ha, alone or + atrazine 1500 or metolachlor 2500
[19] = 44 DAA, Cpd 2/Cpd 1 at 62 g a.i./ha, alone or + atrazine 1500 or metolachlor 2500
[20] = 44 DAA, Cpd 2/Cpd 1 at 125 g a.i./ha, alone or + atrazine 1500 or metolachlor 2500
[21] = 62 DAA, Cpd 2/Cpd 1 at 62 g a.i./ha, alone or + atrazine 1500 or metolachlor 2500
[22] = 62 DAA, Cpd 2/Cpd 1 at 125 g a.i./ha, alone or + atrazine 1500 or metolachlor 2500
[23] = 91 DAA, Cpd 2/Cpd 1 at 62 g a.i./ha, alone or + atrazine 1500 or metolachlor 2500
[24] = 91 DAA, Cpd 2/Cpd 1 at 125 g a.i./ha, alone or + atrazine 1500 or metolachlor 2500

## CCNc1nc(Cl)nc(NC(C)C)n1 [Atrazine, atrazine, reference compound]
Alexandergrass (BRAPL); [10]
  BRAPL Obs: 75
Alexandergrass (BRAPL); [11]
  BRAPL Obs: 50
Alexandergrass (BRAPL); [12]
  BRAPL Obs: 50
Alexandergrass (BRAPL); [13]
  BRAPL Obs: 0
Alexandergrass (BRAPL); [14]
  BRAPL Obs: 0
Giant foxtail (SETFA) [1]; 16 DAA
  SETFA Obs: 0%
Giant foxtail (SETFA) [1]; 31 DAA
  SETFA Obs: 0%
[2]; 28 DAA
  POLPY Obs: 93
[2]; 56 DAA
  POLPY Obs: 100
[3]; [10]
  IPOGF Obs: 97
[3]; [11]
  IPOGF Obs: 97
[3]; [12]
  IPOGF Obs: 70
[3]; 62 DAA, 1500 g a.i./ha, scale 0 to 100
  IPOGF Obs: 50
[3]; 91 DAA, 1500 g a.i./ha, scale 0 to 100
  IPOGF Obs: 40
Yellow foxtail (SETLU) [4]
  SETLU Obs: 0
Common blackjack (BIDPI); [10]
  BIDPI Obs: 100
Common blackjack (BIDPI); [11]
  BIDPI Obs: 97
Common blackjack (BIDPI); [12]
  BIDPI Obs: 80
Common blackjack (BIDPI); [13]
  BIDPI Obs: 70
Common blackjack (BIDPI); [14]
  BIDPI Obs: 40
[5]
  IPOHE Obs: 37%
Velvetleaf (ABUTH) [6]; 14 DAA
  ABUTH Obs: 0%
Velvetleaf (ABUTH) [6]; 28 DAA
  ABUTH Obs: 0%
shepherd's purse (CAPBP); 16 DAA
  CAPBP Obs: 95%
shepherd's purse (CAPBP); 31 DAA
  CAPBP Obs: 100%
Southern sandbur (CCHEC); [10]
  CCHEC Obs: 60
Southern sandbur (CCHEC); [11]
  CCHEC Obs: 40
Southern sandbur (CCHEC); [12]
  CCHEC Obs: 40
Southern sandbur (CCHEC); [13]
  CCHEC Obs: 0
Southern sandbur (CCHEC); [14]
  CCHEC Obs: 0
Giant foxtail (SETFA) [7]
  SETFA Obs: 23%
Velvetleaf (ABUTH) [8]; 19 DAA
  ABUTH Obs: 87%
Velvetleaf (ABUTH) [8]; 29 DAA
  ABUTH Obs: 99%
Velvetleaf (ABUTH) [8]; 56 DAA
  ABUTH Obs: 98%
Yellow foxtail (SETLU) [9]; 14 DAA
  SETLU Obs: 0%
Yellow foxtail (SETLU) [9]; 28 DAA
  SETLU Obs: 0%

## Nc1nc(C2CC2)nc(C(=O)O)c1Cl [Compound 1, 6-amino-5-chloro-2-cyclopropyl-4-pyrimidinecarboxylic acid]
Alexandergrass (BRAPL); [15]
  BRAPL Obs: 40
Alexandergrass (BRAPL); [16]
  BRAPL Obs: 40
Alexandergrass (BRAPL); [17]
  BRAPL Obs: 20
Alexandergrass (BRAPL); [18]
  BRAPL Obs: 60
Alexandergrass (BRAPL); [19]
  BRAPL Obs: 0
Alexandergrass (BRAPL); [20]
  BRAPL Obs: 40
Alexandergrass (BRAPL); [21]
  BRAPL Obs: 0
Alexandergrass (BRAPL); [22]
  BRAPL Obs: 0
Alexandergrass (BRAPL); [23]
  BRAPL Obs: 0
Alexandergrass (BRAPL); [24]
  BRAPL Obs: 0
[3]; [15]
  IPOGF Obs: 20
[3]; [16]
  IPOGF Obs: 40
[3]; [17]
  IPOGF Obs: 40
[3]; [18]
  IPOGF Obs: 80
[3]; 44 DAA, 62 g a.i./ha, scale 0 to 100
  IPOGF Obs: 60
[3]; 44 DAA, 125 g a.i./ha, scale 0 to 100
  IPOGF Obs: 80
[3]; 62 DAA, 62 g a.i./ha, scale 0 to 100
  IPOGF Obs: 0
[3]; 62 DAA, 125 g a.i./ha, scale 0 to 100
  IPOGF Obs: 75
[3]; 91 DAA, 62 g a.i./ha, scale 0 to 100
  IPOGF Obs: 0
[3]; 91 DAA, 125 g a.i./ha, scale 0 to 100
  IPOGF Obs: 60
Common blackjack (BIDPI); [15]
  BIDPI Obs: 60
Common blackjack (BIDPI); [16]
  BIDPI Obs: 80
Common blackjack (BIDPI); [17]
  BIDPI Obs: 60
Common blackjack (BIDPI); [18]
  BIDPI Obs: 80
Common blackjack (BIDPI); [19]
  BIDPI Obs: 40
Common blackjack (BIDPI); [20]
  BIDPI Obs: 80
Common blackjack (BIDPI); [21]
  BIDPI Obs: 40
Common blackjack (BIDPI); [22]
  BIDPI Obs: 60
Common blackjack (BIDPI); [23]
  BIDPI Obs: 0
Common blackjack (BIDPI); [24]
  BIDPI Obs: 70
Southern sandbur (CCHEC); [15]
  CCHEC Obs: 40
Southern sandbur (CCHEC); [16]
  CCHEC Obs: 40
Southern sandbur (CCHEC); [17]
  CCHEC Obs: 20
Southern sandbur (CCHEC); [18]
  CCHEC Obs: 20
Southern sandbur (CCHEC); [19]
  CCHEC Obs: 0
Southern sandbur (CCHEC); [20]
  CCHEC Obs: 40
Southern sandbur (CCHEC); [21]
  CCHEC Obs: 0
Southern sandbur (CCHEC); [22]
  CCHEC Obs: 0
Southern sandbur (CCHEC); [23]
  CCHEC Obs: 0
Southern sandbur (CCHEC); [24]
  CCHEC Obs: 0

## O=C(O)CNCP(=O)(O)O [Glyphosate]
Giant foxtail (SETFA) [1]; 16 DAA
  SETFA Obs: 100%
Giant foxtail (SETFA) [1]; 31 DAA
  SETFA Obs: 98%
Velvetleaf (ABUTH) [6]; 14 DAA
  ABUTH Obs: 99%
Velvetleaf (ABUTH) [6]; 28 DAA
  ABUTH Obs: 100%
shepherd's purse (CAPBP); 16 DAA
  CAPBP Obs: 98%
shepherd's purse (CAPBP); 31 DAA
  CAPBP Obs: 100%
Yellow foxtail (SETLU) [9]; 14 DAA
  SETLU Obs: 97%
Yellow foxtail (SETLU) [9]; 28 DAA
  SETLU Obs: 96%

## CCc1cccc(C)c1N(C(=O)CCl)[C@@H](C)COC [S-Metolachlor, S-metolachlor, reference compound]
[2]; 28 DAA
  POLPY Obs: 57
[2]; 56 DAA
  POLPY Obs: 20
Yellow foxtail (SETLU) [4]
  SETLU Obs: 100
[5]
  IPOHE Obs: 23%
Giant foxtail (SETFA) [7]
  SETFA Obs: 63%
Velvetleaf (ABUTH) [8]; 19 DAA
  ABUTH Obs: 28%
Velvetleaf (ABUTH) [8]; 29 DAA
  ABUTH Obs: 42%
Velvetleaf (ABUTH) [8]; 56 DAA
  ABUTH Obs: 18%
